Reference: patent publication US9440913B2, “Dihydroxybenzene derivatives and antiprotozoal agent comprising same as active ingredient” (NAI INC., priority 2010, dated 2016)

What was measured:
[1] = biological target: T1, recombinant Trypanosome AOX (TAO) enzyme (Trypanosoma brucei brucei, UniProt Q26710); assay: TAO enzyme inhibition (quinol oxidase activity, ubiquinol-1 substrate); type: biochemical, T. brucei brucei; details: TAO-expressing E. coli membrane fraction, 25° C., ubiquinol-1, absorbance at 278 nm
T1 construct: made in house; host or cells: Escherichia coli (membrane fraction)
Experimental: Escherichia coli membrane fractions that express TAO by a plasmid harboring TAO cDNA cloned from T. brucei brucei (Fukai, Comparative Biochemistry & Physiology, 124, 141-148, 1999) were used as a recombinant Trypanosome AOX (TAO) enzyme. 50 mM Tris-HCl (pH 7.5), TAO-expressing membrane fraction (0.35 ng), and […] of an inhibitor were mixed in a 1 mL cuvette, and the mixture was incubated at 25° C. for 4 minutes. Ubiquinol-1 as a substrate was then added to the mixture to initiated the reaction, and change in absorbance at 278 nm was monitored (Shimadzu UV-3000, molar absorption coefficient ε=15 cm^−1 mM^−1).

T. b. rhodesiense IL1501 = assay: Antiprotozoal effect, MIC measurement in HMI-9 culture; type: cell-based; details: bloodstream forms, 18 + 6 hours culture
Experimental: T. b. rhodesiense IL1501, the human infectious protozoan that causes acute symptoms, was used as a Trypanosomatid protozoan. The bloodstream forms of protozoan can be cultured in a HMI-9 culture medium (Hirumi, 1989). The protozoan was always cultured at a temperature of 37° C. in the presence of 5% CO2.
In a microtiter plate (96-well, FALCON 3072), HMI-9 culture medium and HMI-9 culture medium plus glycerol added to make a final concentration of 8.33 mM are separately prepared. 89 μL of the preparation are put into only the first well, and a 60 μL aliquot of each the other wells. 1 μL of a solution of AF or a AF derivative dissolved in DMSO was added to the first well, and was then suspended. A 30 μL aliquot of the suspension was then collected, was transferred to the second well, and was suspended. These operations were repeated in this order to prepare a three-fold dilution series of drug. A 40 μL aliquot of a protozoan culture was added to each well to make a final concentration of 5×10^4 cells/well (a final concentration of glycerol of 5 mM) followed by 18-hours culturing under conditions of 37° C. and 5% CO2. (For EC50 measurement, a 10 μL aliquot of Alamar Blue was added to each well), culturing was carried out under the same conditions for 6 more hours, surviving protozoans were visually observed with a microscope. The concentration at which no motile surviving protozoan was observed was defined as MIC.

[2] = Trypanosoma brucei, RHODESIENSE, 24 h, Glycerol (+), final concentration of glycerol of 5 mM
[3] = Trypanosoma brucei, RHODESIENSE, 24 h, Glycerol (−)

T1 sequence (Q26710 whole entry): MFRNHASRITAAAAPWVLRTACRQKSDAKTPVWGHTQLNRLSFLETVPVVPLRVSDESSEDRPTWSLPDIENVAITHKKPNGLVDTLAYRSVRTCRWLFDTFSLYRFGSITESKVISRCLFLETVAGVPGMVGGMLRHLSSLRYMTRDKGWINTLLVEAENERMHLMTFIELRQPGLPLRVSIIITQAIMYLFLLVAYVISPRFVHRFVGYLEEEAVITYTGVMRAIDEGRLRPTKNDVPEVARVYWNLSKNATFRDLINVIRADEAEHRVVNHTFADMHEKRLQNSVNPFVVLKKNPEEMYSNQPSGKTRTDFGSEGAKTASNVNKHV

Row | SMILES | IC50 [1] | MIC (T. b. rhodesiense IL1501; [2]) | MIC (T. b. rhodesiense IL1501; [3]) | MIC (T. b. rhodesiense IL1501; Glycerol (+), final concentration of glycerol of 5 mM) | MIC (T. b. rhodesiense IL1501; Glycerol (−))
1 | COC(C)(C)CCC/C(C)=C/Cc1c(O)c(Cl)c(C)c(C=O)c1O [Compound 231-9-OMe, 3-Chloro-4,6-dihydroxy-5-[(E)-7-methoxy-3,7-dimethyl-2-octeny]-2-methylbenzaldehyde] | 0.29 nM |  |  |  | 
2 | CC(=O)c1c(C)c(Cl)c(O)c(CCCCCCCOC(=O)C(C)(C)C)c1O [Compound 172-11-OPiv, 7-(3-Acetyl-5-chloro-2,6-dihydroxy-4-methylphenyl)heptyl pivalate] | 8 nM | 19 nM | 540 nM |  | 
3 | C/C(=C\Cc1c(O)c(Cl)c(C)c(CO)c1O)CC/C=C(\C)COC(=O)C(C)(C)C [Compound 503-OPiv, (2E,6E)-8-(3-Chloro-2,6-dihydroxy-5-hydroxymethyl-4-methylphenyl)-2,6-dimethyl-2,6-octadienyl pivalate] | 0.3 nM |  |  |  | 
4 | CCOC(=O)CCCCCCCCCc1c(O)c(Cl)c(C)c(C=O)c1O [Compound 215-13-COOEt, Ethyl 10-(3-chloro-5-formyl-2,6-dihydroxy-4-methylphenyl)decanoate] | 0.2 nM | 2 nM | 24 nM |  | 
5 | COC(=O)CCCCCCC/C=C/c1c(O)c(Cl)c(C)c(C=O)c1O [Compound 200-12-COOMe, (E)-Methyl 10-(3-chloro-5-formyl-2,6-dihydroxy-4-methylphenyl)-10-decenoate] | 0.5 nM | 33 nM | 120 nM |  | 
6 | C/C(=C\Cc1c(O)c(Cl)c(C)c(C=O)c1O)CC/C=C/COC(=O)C(C)(C)C [Compound 289-12-OPiv, (2E,6E)-8-(3-Chloro-5-formyl-2,6-dihydroxy-4-methylphenyl)-6-methyl-2,6-octadienyl pivalate] | 0.2 nM |  |  |  | 
7 | CC(=O)c1c(C)c(Cl)c(O)c(C/C=C(\C)CC/C=C(\C)C(C)O)c1O (stereo not shown) [Compound 286-9-OH, (2E,6E)-3-Chloro-4,6-dihydroxy-2-methyl-5-(8-hydroxy-3′,7′-dimethyl-2′,6′-nonadienyl)acetophenone] | 7.1 nM |  |  |  | 
8 | CC(=O)c1c(C)c(Cl)c(O)c(C/C=C(\C)CC/C=C(\C)C2CC(=O)C(C)(C)O2)c1O (stereo not shown) [Compound 214, 5-Chloro-2,4-dihydroxy-6-methyl-3-[(2E,6E)-7-(5,5-dimethyl-4-oxotetrahydrohuran-2-yl)-3,7-dimethyl-2,6-heptadienyl]acetophenone] | 0.3 nM |  |  |  | 
9 | C/C(=C\Cc1c(O)c(Cl)c(C)c(C=O)c1O)CC/C=C(\C)COC1CCCCO1 (stereo not shown) [Compound 236-13-OTHP, 3-Chloro-5-[(2E,6E)-3,7-dimethyl-8-(tetrahydropyran-2-yloxy)-2,6-octadienyl]-4,6-dihydroxy-2-methylbenzaldehyde] | 0.2 nM |  |  |  | 
10 | CCCCC/C(C)=C/COc1cc(O)c(C(C)=O)c(C)c1Cl [Compound 270-8, (E)-3-Chloro-6-hydroxy-2-methyl-(3-methyl-2-octenoxy)acetophenone] | 300 nM | 3700 nM | 9200 nM |  | 
11 | CCCCC/C(C)=C/Cc1c(O)c(Cl)c(C)c(C=O)c1O [Compound 264-8, (E)-3-Chloro-4,6-dihydroxy-2-methyl-5-(3-methyl-2-octenyl)benzaldehyde] | 0.06 nM | 0.002 nM | 0.18 nM |  | 
12 | Cc1c(Cl)c(O)c(/C=C/CCCCCCOC(=O)C(C)C)c(O)c1C=O [Compound 200-12-OCOiPr, (E)-8-(3-Chloro-5-formyl-2,6-dihydroxy-4-methylphenyl)-7-octenyl isobutylate] | 0.75 nM |  |  |  | 
13 | CC(=O)c1c(C)c(Cl)c(O)c(C/C=C(\C)CC/C=C(\C)COC(=O)C(C)(C)C)c1O [Compound 175-12-OPiv, (2E,6E)-8-(5-Acetyl-3-chloro-2,6-dihydroxy-4-methylphenyl)-2,6-dimethyl-2,6-octadienyl pivalate] | 0.7 nM | 1.4 nM | 10 nM |  | 
14 | CCOC(=O)CCCCCCCc1c(O)c(Cl)c(C)c(C=O)c1O [Compound 215-11-COOEt, Ethyl 8-(3-chloro-5-formyl-2,6-dihydroxy-4-methylphenyl)octanoate] | 0.5 nM | 8.5 nM | 48 nM |  | 
15 | Cc1c(Cl)c(O)c(C/C=C/CCCC/C=C/C(=O)C(C)(C)C)c(O)c1C=O [Compound 288-12-Piv, 3-Chloro-4,6-dihydroxy-5-((E,E)-11,11-dimethyl-10-oxo-2,8-dodecadienyl)-2-methylbenzaldehyde] | 0.74 nM |  |  |  | 
16 | C/C(=C\CC/C=C/Cc1c(O)c(Cl)c(C)c(C=O)c1O)COC(=O)C(C)(C)C [Compound 278-12-OPiv, (2E,6E)-8-(3-Chloro-5-formyl-2,6-dihydroxy-4-methylphenyl)-2-methyl-2,6-octadienyl pivalate] | 0.26 nM |  |  |  | 
17 | Cc1c(Cl)c(O)c(/C=C/CCCCCOC(=O)C(C)(C)C)c(O)c1C=O [Compound 200-11-OPiv, (E)-7-(3-Chloro-5-formyl-2,6-dihydroxy-4-methylphenyl)-6-heptenyl pivalate] | 0.53 nM | 0.8 nM | 22 nM |  | 
18 | C/C(=C\COC(=O)C(C)C)CC/C(C)=C/Cc1c(O)c(Cl)c(C)c(C=O)c1O [Compound 287-12-OCOiPr, (2E,6E)-8-(3-Chloro-5-formyl-2,6-dihydroxy-4-methylphenyl)-3,6-dimethyl-2,6-octadienyl isobutylate] | 0.26 nM |  |  |  | 
19 | Cc1c(Cl)c(O)c(CCCCCCC(C)COC(=O)C(C)(C)C)c(O)c1C=O (stereo not shown) [Compound 279-12-OPiv, 8-(3-Chloro-5-formyl-2,6-dihydroxy-4-methylphenyl)-2-methyloctyl pivalate] | 0.41 nM |  |  |  | 
20 | Cc1c(Cl)c(O)c(CCC(C)CCCCCOC(=O)C(C)(C)C)c(O)c1C=O (stereo not shown) [Compound 290-12-OPiv, 8-(3-Chloro-5-formyl-2,6-dihydroxy-4-methylphenyl)-6-methyloctyl pivalate] | 0.3 nM |  |  |  | 
21 | Cc1c(Cl)c(O)c(CCCCCCCCCC(=O)C(C)(C)C)c(O)c1C=O [Compound 215-12-Piv, 3-Chloro-4,6-dihydroxy-5-(11,11-dimethyl-10-oxo-dodecyl)-2-methylbenzaldehyde] | 0.4 nM |  |  |  | 
22 | C/C(=C\Cc1c(O)c(Cl)c(C)c(C=O)c1O)CCCCOC(=O)C(C)(C)C [Compound 264-11-OPiv, (5E)-7-(3-Chloro-5-formyl-2,6-dihydroxy-4-methylphenyl)-5-methyl-5-heptenyl pivalate] | 0.22 nM |  |  |  | 
23 | C/C(=C\COC(=O)C(C)(C)C)CC/C(C)=C/Cc1c(O)c(Cl)c(C)c(C=O)c1O [Compound 287-12-OPiv, (2E,6E)-8-(3-Chloro-5-formyl-2,6-dihydroxy-4-methylphenyl)-3,6-dimethyl-2,6-octadienyl pivalate] | 0.36 nM |  |  |  | 
24 | Cc1c(Cl)c(O)c(CCCCCCCCCOC(=O)C(C)C)c(O)c1C=O [Compound 215-13-OCOiPr, 9-(3-Chloro-5-formyl-2,6-dihydroxy-4-methylphenyl)nonyl isobutylate] | 0.3 nM |  |  |  | 
25 | Cc1c(Cl)c(O)c(/C=C/CCCCCC2CC(=O)C(C)(C)O2)c(O)c1C=O (stereo not shown) [Compound 249, 3-Chloro-4,6-dihydroxy-2-methyl-5-[(E)-7-(5,5-dimethyl-4-oxo-tetrahydrofuran-2-yl)-1-heptenyl]benzaldehyde] | 1 nM | 18 nM | 74 nM |  | 
26 | CCCCCC(C)CCc1c(O)c(Cl)c(C)c(C(C)=O)c1O (stereo not shown) [Compound 269-8, 3-Chloro-4,6-dihydroxy-2-methyl-5-(3-methyloctyl)acetophenone] | 2.5 nM |  |  | 70 nM | 500 nM
